{"source": "ChEMBL document CHEMBL1152144", "about": "“In situ blood-brain barrier permeability of a C-10 paclitaxel carbamate” (Bioorg Med Chem Lett, 2008)", "tested_on": "Brain", "assay": "Blood-brain barrier permeability in B6C3 mouse brain assessed as increase in drug level at 0.1 uCi, iv relative to [14C]paclitaxel", "type": "ADME, organism-based", "conditions": "in vivo", "data": [{"smiles": "CC(=O)O[C@@]12CO[C@@H]1C[C@H](O)[C@@]1(C)C(=O)[C@H](OC(=O)CCC(=O)O)C3=C(C)[C@@H](OC(=O)[C@H](O)[C@@H](NC(=O)c4ccccc4)c4ccccc4)C[C@@](O)([C@@H](OC(=O)c4ccccc4)[C@H]21)C3(C)C", "values": [{"measurement": "fold change (FC)", "value": 6}]}, {"smiles": "CC(=O)O[C@@]12CO[C@@H]1C[C@H](O)[C@@]1(C)C(=O)[C@H](OC(=O)N[14CH2][14CH2]O)C3=C(C)[C@@H](OC(=O)[C@H](O)[C@@H](NC(=O)c4ccccc4)c4ccccc4)C[C@@](O)([C@@H](OC(=O)c4ccccc4)[C@H]21)C3(C)C", "values": [{"measurement": "fold change (FC)", "value": 3}]}]}
